Experimental data from patent US9586961B2, “Homopiperazine derivatives as protein tyrosine kinase inhibitors and pharmaceutical use thereof” (LEO PHARMA A/S, priority 2010, dated 2017).

Tests used:
Assay type in all cases: biochemical
[1] = molecular target: T1, JAK3 (Homo sapiens, UniProt P52333); test: JAK3 kinase assay (HTRF, inhibition of phosphorylation of a synthetic peptide); details: catalytic domain, His-tag; 2 μM ATP (Km); read-out: JAK3 kinase inhibitory activity (EC50)
T1 construct: All four purified enzymes contain only the catalytic domain; His (N); purchased Carna Biosciences, Inc; host or cells: baculovirus expression system
Procedure: (§1) JAK1, JAK2, JAK3 and TYK2 Kinase Assays:
(§2) Human baculovirus-expressed JAK1, 2, 3 and TYK2 were purchased from Carna Biosciences, Inc. All four purified enzymes contain only the catalytic domain. JAK1 (aa 850-1154) and TYK2 (aa 871-1187) are expressed with an N-terminally fused GST-tag, and JAK2 and JAK3 with an N-terminally fused His-tag. Inhibition of phosphorylation of a synthetic peptide was measured in an HTRF-based assay using the TK substrate-Biotin from the CisbioHTRFKinEASE TK kit. First, 2 μl of TK solution (TK substrate-biotin in kinase buffer [1× enzymatic buffer from HTRFKinEASE TK kit, 1 mM DTT]) is added to a plate containing 1 μl prediluted compound (final assay concentration DMSO: 0.75%). Then, 5 μl kinase-ATP mix (prepared in kinase buffer) is added to the wells and the plates are incubated at RT for 20-30 min. For all four kinases a concentration of ATP that corresponded to the Km for ATP was used. The final concentrations of buffers, substrate, kinase and ATP were: JAK1: 50 mMHepes buffer pH 7.0, 0.01% BSA, 10 mM MgCl2, 1 mM DTT, 7 μM ATP, 50 nMSEB, 1 μM TK Substrate-Biotin and 5 ng JAK1; JAK2: 50 mM Hepes buffer pH 7.0, 0.01% BSA, 5 mM MgCl2, 1 mM DTT, 4 μM ATP, 1 μM TK Substrate-Biotin and 0.1 ng JAK2; JAK3: 50 mMHepes buffer pH 7.0, 0.01% BSA, 5 mM MgCl2, 1 mM DTT, 2 μM ATP, 1 μM TK Substrate-Biotin and 0.3 ng JAK3; TYK2: 50 mMHepes buffer pH 7.0, 0.01% BSA, 5 mM MgCl2, 1 mM DTT, 13 μM ATP, 50 nMSEB, 1 μM TK Substrate-Biotin and 0.8 ng TYK2. Thereafter, the kinase reaction is stopped by adding 4 μl detection mix (final concentrations: 50 mM Hepes buffer pH 7.0, 0.01% BSA, 0.8 M KF, 20 mM EDTA, 42 nM Streptavidin-XL665 and 1:400 STKAbCryptate) and the plates are incubated overnight in the dark. The HTRF signal is read using an Envision plate reader.

[2] = molecular target: T2, JAK2 (Homo sapiens, UniProt O60674); test: JAK2 kinase assay (HTRF, inhibition of phosphorylation of a synthetic peptide); details: catalytic domain, His-tag; 4 μM ATP (Km); read-out: JAK2 kinase inhibitory activity (EC50)
T2 construct: All four purified enzymes contain only the catalytic domain; His (N); purchased Carna Biosciences, Inc; host or cells: baculovirus expression system
Procedure: as §1, §2

[3] = molecular target: T3, JAK1 (Homo sapiens, UniProt P23458); test: JAK1 kinase assay (HTRF, inhibition of phosphorylation of a synthetic peptide); details: catalytic domain aa 850-1154, GST-tag; 7 μM ATP (Km); read-out: JAK1 kinase inhibitory activity (EC50)
T3 construct: JAK1 (aa 850-1154) and TYK2 (aa 871-1187) are expressed with an N-terminally fused GST-tag; GST (N); purchased Carna Biosciences, Inc; host or cells: baculovirus expression system
Procedure: as §1, §2

T1 sequence (P52333 822-1111 limits assumed): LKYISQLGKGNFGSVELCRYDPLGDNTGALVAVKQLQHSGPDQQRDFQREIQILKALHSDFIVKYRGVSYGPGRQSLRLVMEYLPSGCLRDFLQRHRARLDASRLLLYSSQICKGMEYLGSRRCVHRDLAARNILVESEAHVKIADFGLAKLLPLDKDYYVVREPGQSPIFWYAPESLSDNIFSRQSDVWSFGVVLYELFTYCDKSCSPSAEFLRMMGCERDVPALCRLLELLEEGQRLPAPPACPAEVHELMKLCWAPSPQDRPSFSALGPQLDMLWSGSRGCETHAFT
T2 sequence (O60674 849-1124 limits assumed): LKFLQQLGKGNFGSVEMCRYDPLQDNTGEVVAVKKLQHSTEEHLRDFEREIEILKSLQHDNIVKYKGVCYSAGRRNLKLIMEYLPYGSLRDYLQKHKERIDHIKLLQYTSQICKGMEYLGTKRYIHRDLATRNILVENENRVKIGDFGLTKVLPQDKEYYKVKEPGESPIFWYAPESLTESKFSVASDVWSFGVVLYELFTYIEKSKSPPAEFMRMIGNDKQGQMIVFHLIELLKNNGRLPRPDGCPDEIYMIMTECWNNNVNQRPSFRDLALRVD
T3 sequence (P23458 850-1154): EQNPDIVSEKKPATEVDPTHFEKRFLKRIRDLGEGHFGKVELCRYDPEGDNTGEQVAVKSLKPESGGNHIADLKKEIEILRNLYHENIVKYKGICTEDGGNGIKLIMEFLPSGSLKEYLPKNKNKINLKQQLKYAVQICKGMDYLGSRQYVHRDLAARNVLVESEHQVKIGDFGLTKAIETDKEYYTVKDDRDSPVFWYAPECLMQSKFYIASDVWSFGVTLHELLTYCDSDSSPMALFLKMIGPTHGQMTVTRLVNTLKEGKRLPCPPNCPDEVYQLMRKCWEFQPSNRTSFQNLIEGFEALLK

| Structure (SMILES) | EC50 [1] [nM] | EC50 [2] [nM] | EC50 [3] [nM] |
| --- | --- | --- | --- |
| Cc1cc(CC(=O)N2CCN(c3ncnc4[nH]ccc34)CC3(CC3)C2)n[nH]1 [Example 248, 2-(5-methyl-1H-pyrazol-3-yl)-1-[5-(7H-pyrrolo[2,3-d]pyrimidin-4-yl)-5,8-diazaspiro[2.6]nonan-8-yl]ethanone] | > 1000 | < 100 | 100 to 1000 |
| Cc1cnccc1C(=O)N1CCN(c2ncnc3[nH]ccc23)CC2(CC2)C1 [Example 137, (3-methyl-4-pyridyl)-[5-(7H-pyrrolo[2,3-d]pyrimidin-4-yl)-5,8-diazaspiro[2.6]nonan-8-yl]methanone] | > 1000 | 100 to 1000 | > 1000 |
| c1ccc(CN2CCCN(c3ncnc4[nH]ccc34)CC23CC3)cc1 [Example 280, 4-(9-benzyl-5,9-diazaspiro[2.6]nonan-5-yl)-7H-pyrrolo[2,3-d]pyrimidine] | > 1000 | 100 to 1000 | > 1000 |
| Cc1ccncc1C(=O)N1CCCN(c2ncnc3[nH]ccc23)CC12CC2 [Example 151, (4-methyl-3-pyridyl)-[5-(7H-pyrrolo[2,3-d]pyrimidin-4-yl)-5,9-diazaspiro[2.6]nonan-9-yl]methanone] | > 1000 | 100 to 1000 | 100 to 1000 |
| O=C(c1cncnc1)N1CCCN(c2ncnc3[nH]ccc23)CC12CC2 [Example 161, pyrimidin-5-yl-[5-(7H-pyrrolo[2,3-d]pyrimidin-4-yl)-5,9-diazaspiro[2.6]nonan-9-yl]methanone] | > 1000 | 100 to 1000 | 100 to 1000 |
| Cn1cc(CC(=O)N2CCN(c3ncnc4[nH]ccc34)CC3(CC3)C2)cn1 [Example 253, 2-(1-methylpyrazol-4-yl)-1-[5-(7H-pyrrolo[2,3-d]pyrimidin-4-yl)-5,8-diazaspiro[2.6]nonan-8-yl]ethanone] | > 1000 | 100 to 1000 | 100 to 1000 |
| Cc1cc(CC(=O)N2CCN(c3ncnc4[nH]ccc34)CC3(CC3)C2)on1 [Example 184, 2-(3-methylisoxazol-5-yl)-1-[5-(7H-pyrrolo[2,3-d]pyrimidin-4-yl)-5,8-diazaspiro[2.6]nonan-8-yl]ethanone] | 100 to 1000 | < 100 | < 100 |
| O=C(c1ccnc(O)c1)N1CCN(c2ncnc3[nH]ccc23)CC2(CC2)C1 [Example 190, (2-hydroxy-4-pyridyl)-[5-(7H-pyrrolo[2,3-d]pyrimidin-4-yl)-5,8-diazaspiro[2.6]nonan-8-yl]methanone] | > 1000 | 100 to 1000 | 100 to 1000 |
| Cc1ccc(S(=O)(=O)N2CCN(c3ncnc4[nH]ccc34)CC3(CC3)C2)cc1 [Example 96, 4-[8-(p-tolylsulfonyl)-5,8-diazaspiro[2.6]nonan-5-yl]-7H-pyrrolo[2,3-d]pyrimidine] | > 1000 | 100 to 1000 | 100 to 1000 |
| CC(C)(C)c1ccc(CC(=O)N2CCN(c3ncnc4[nH]ccc34)CC3(CC3)C2)cc1 [Example 267, 2-(4-tert-butylphenyl)-1-[5-(7H-pyrrolo[2,3-d]pyrimidin-4-yl)-5,8-diazaspiro[2.6]nonan-8-yl]ethanone] | 100 to 1000 | 100 to 1000 | 100 to 1000 |
| O=C(c1cnco1)N1CCN(c2ncnc3[nH]ccc23)CC2(CC2)C1 [Example 155, oxazol-5-yl-[5-(7H-pyrrolo[2,3-d]pyrimidin-4-yl)-5,8-diazaspiro[2.6]nonan-8-yl]methanone] | 100 to 1000 | 100 to 1000 | 100 to 1000 |
| Cc1ncoc1C(=O)N1CCCN(c2ncnc3[nH]ccc23)CC12CC2 [Example 192, (4-methyloxazol-5-yl)-[5-(7H-pyrrolo[2,3-d]pyrimidin-4-yl)-5,9-diazaspiro[2.6]nonan-9-yl]methanone] | 100 to 1000 | 100 to 1000 | 100 to 1000 |
| Cc1cncc(C(=O)N2CCCN(c3ncnc4[nH]ccc34)CC23CC3)n1 [Example 198, (6-methylpyrazin-2-yl)-[5-(7H-pyrrolo[2,3-d]pyrimidin-4-yl)-5,9-diazaspiro[2.6]nonan-9-yl]methanone] | > 1000 | 100 to 1000 | 100 to 1000 |
| Cc1cc(C(=O)N2CCN(c3ncnc4[nH]ccc34)CC3(CC3)C2)n(C)n1 [Example 143, (2,5-dimethylpyrazol-3-yl)-[5-(7H-pyrrolo[2,3-d]pyrimidin-4-yl)-5,8-diazaspiro[2.6]nonan-8-yl]methanone] | > 1000 | > 1000 | > 1000 |
| O=C1CSC(=O)N1CC(=O)N1CCCN(c2ncnc3[nH]ccc23)CC12CC2 [Example 85, 3-[2-oxo-2-[5-(7H-pyrrolo[2,3-d]pyrimidin-4-yl)-5,9-diazaspiro[2.6]nonan-9-yl]ethyl]thiazolidine-2,4-dione] | 100 to 1000 | 100 to 1000 | 100 to 1000 |
| Cc1oncc1C(=O)N1CCN(c2ncnc3[nH]ccc23)CC2(CC2)C1 [Example 108, (5-methylisoxazol-4-yl)-[5-(7H-pyrrolo[2,3-d]pyrimidin-4-yl)-5,8-diazaspiro[2.6]nonan-8-yl]methanone] | 100 to 1000 | 100 to 1000 | 100 to 1000 |
| Cc1ncsc1CC(=O)N1CCN(c2ncnc3[nH]ccc23)CC2(CC2)C1 [Example 246, 2-(4-methylthiazol-5-yl)-1-[5-(7H-pyrrolo[2,3-d]pyrimidin-4-yl)-5,8-diazaspiro[2.6]nonan-8-yl]ethanone] | > 1000 | 100 to 1000 | 100 to 1000 |
| O=C(c1cncnc1)N1CCN(c2ncnc3[nH]ccc23)CC2(CC2)C1 [Example 160, pyrimidin-5-yl-[5-(7H-pyrrolo[2,3-d]pyrimidin-4-yl)-5,8-diazaspiro[2.6]nonan-8-yl]methanone] | > 1000 | 100 to 1000 | > 1000 |
| N#Cc1ccccc1CC(=O)N1CCN(c2ncnc3[nH]ccc23)CC2(CC2)C1 [Example 272, 2-[2-oxo-2-[5-(7H-pyrrolo[2,3-d]pyrimidin-4-yl)-5,8-diazaspiro[2.6]nonan-8-yl]ethyl]benzonitrile] | 100 to 1000 | < 100 | 100 to 1000 |
| O=C(c1cncc(F)c1)N1CCN(c2ncnc3[nH]ccc23)CC2(CC2)C1 [Example 213, (5-fluoro-3-pyridyl)-[5-(7H-pyrrolo[2,3-d]pyrimidin-4-yl)-5,8-diazaspiro[2.6]nonan-8-yl]methanone] | > 1000 | 100 to 1000 | 100 to 1000 |
| O=C(Cc1ccccc1Cl)N1CCCN(c2ncnc3[nH]ccc23)CC12CC2 [Example 174, 2-(2-chlorophenyl)-1-[5-(7H-pyrrolo[2,3-d]pyrimidin-4-yl)-5,9-diazaspiro[2.6]nonan-9-yl]ethanone] | > 1000 | 100 to 1000 | 100 to 1000 |
| O=C(c1ccno1)N1CCCN(c2ncnc3[nH]ccc23)CC12CC2 [Example 181, isoxazol-5-yl-[5-(7H-pyrrolo[2,3-d]pyrimidin-4-yl)-5,9-diazaspiro[2.6]nonan-9-yl]methanone] | 100 to 1000 | < 100 | < 100 |
| COc1ccc(CC(=O)N2CCN(c3ncnc4[nH]ccc34)CC3(CC3)C2)cc1 [Example 261, 2-(4-methoxyphenyl)-1-[5-(7H-pyrrolo[2,3-d]pyrimidin-4-yl)-5,8-diazaspiro[2.6]nonan-8-yl]ethanone] | 100 to 1000 | < 100 | 100 to 1000 |
| N#CCCN(CCC#N)C(=O)N1CCN(c2ncnc3[nH]ccc23)CC2(CC2)C1 [Example 225, N,N-bis(2-cyanoethyl)-5-(7H-pyrrolo[2,3-d]pyrimidin-4-yl)-5,8-diazaspiro[2.6]nonane-8-carboxamide] | 100 to 1000 | 100 to 1000 | > 1000 |
| O=C(c1cncc(F)c1)N1CCCN(c2ncnc3[nH]ccc23)CC12CC2 [Example 214, (5-fluoro-3-pyridyl)-[5-(7H-pyrrolo[2,3-d]pyrimidin-4-yl)-5,9-diazaspiro[2.6]nonan-9-yl]methanone] | 100 to 1000 | 100 to 1000 | 100 to 1000 |
